Drawing on patent US9067898B1, “Isothiazole derivatives as GPR120 agonists for the treatment of type II diabetes” (Janssen Pharmaceutica NV, priority 2014, dated 2015), this text covers EC50 for 20 molecules.

The target in experiment [1] is T1, short form of the GPR120 receptor (GPR120S) (Homo sapiens, UniProt Q5NUL3).
T1 construct: host or cells: PathHunter CHO-K1 GPR120S β-Arrestin Cell Line
Briefly: Human GPR120 DiscoveRx PathHunter Beta-Arrestin assay, Procedure β-arrestin B. Format: cell-based. As to conditions: PathHunter CHO-K1 GPR120S β-Arrestin cell line, 5000 cells/well, read-out: hGPR120 β-arrestin B EC50. From the text:
The binding of an agonist (medium/long chain fatty acids or small molecule agonists) to the G-protein-coupled receptor GPR120 activates phospholipase C, leading to release of intracellular Ca^+2 through the generation of inositol 1,4,5-trisphosphate (InsP3 or IP3). GPR120 activation can also trigger intracellular signaling via recruitment of Beta-Arrestin. In the present method, agonist-induced activation of the human GPR120 receptor is monitored through the use of PathHunter CHO-K1 GPR120 Beta-Arrestin Cell Line engineered by DiscoveRx, as detailed below. The cell lines are designed to co-express both the ProLink/Enzyme Donor (PK)-tagged GPCR and the Enzyme […] (EA)-tagged Beta-Arrestin fusion proteins. Upon GPR120 receptor stimulation/activation, the EA-tagged Beta-Arrestin portion is translocated to the tagged receptor, where the two enzyme fragments are brought within close proximity. Under these conditions, these fragments can interact and form an active Beta-gal enzyme complex through Enzyme Fragment Complementation (EFC). This active Beta-gal complex can enzymatically hydrolyse the substrate to produce a detectable light signal; therefore, activation as a function of agonist concentration can be expressed as an EC50 value to determine relative compound activities. This in vitro assay therefore serves to assess compound agonist activity of the GPR120. Procedure β-Arrestin A: In Procedure β-arrestin A, the cell used were PathHunter CHO-K1 GPR120 β-Arrestin Cell Line, expressing the long form of human GPR120 (Genbank accession number NM 181745), with 3000 cells per well. Procedure β-Arrestin B: In Procedure 3-arrestin B the cells used were PathHunter CHO-K1 GPR120S β-Arrestin Cell Line, expressing the short form of the GPR120 receptor (Accession #NM_181745), with 5000 cells/well. Assay Procedure:
The selected CHO-K1 GPR120 β-Arrestin cells were cultured in Ham's F12 media supplemented with 10% fetal bovine serum (FBS), 1% Glutamine, lx p/s, 800 μg/mL G418 and 300 μg/mL Hygromycin B (for selection). Cell stocks were maintained and grown in a sub-confluent state using standard cell culture procedures. The day before the experiment, the cells were harvested with non-enzymatic cell dissociation buffer and re-suspended in complete growth media at the desired concentration. A Corning 384-plate was then seeded with the proper number of cells in a volume of 25 μL, per well. The seeded plates were incubated overnight at 37° C.
On the day of the experiment, the Assay Buffer containing (a) HBSS with Ca^++ and Mg^++, (b) 20 mM HEPES, and (c) 0.1% BSA stabilizer (pH 7.4) was prepared. The growth medium was gently removed from the cell plates and 20 μL of Assay Buffer added to each well. The plate was then incubated at 37° C. for 60 min. Test compounds were serially diluted in Assay Buffer to desired concentrations (more particularly to one or more of the following μM concentrations: 25, 12.5, 6.25, 3.125, 1.5625, 0.78125, 0.390625, 0.1953125, 0.09765625, 0.048828125, 0.024414063, 0.012207031). Five μL of compound dilution was then added to each well and the plate incubated at 37° C. for 90 min. The detection reagents were prepared according to the manufacture's instruction. Twelve μL of the detection reagents were added to each well and the plate incubated at room temperature for 60 min.
The plates were read on an EnVision instrument, using Protocol name: Luminescence, Plate type: 384 Costar, Measurement height: 3 mm, Measurement time: 1 s, Aperture: 384 Plate aperture. The % activity relative to the positive control was calculated using the following equation:
The % Activity values were plotted versus the concentration of test compound and fitted to a sigmoidal dose-response curve with a Hill slope=1 (fixed value) using nonlinear regression with GraphPad Prism 5.0 to calculate the EC50 values. […]

The target of another experiment is T2, Human GPR120 short form (Homo sapiens, UniProt Q5NUL3).
T2 construct: expressed in transfected cells
T2 sequence (Q5NUL3 1-361): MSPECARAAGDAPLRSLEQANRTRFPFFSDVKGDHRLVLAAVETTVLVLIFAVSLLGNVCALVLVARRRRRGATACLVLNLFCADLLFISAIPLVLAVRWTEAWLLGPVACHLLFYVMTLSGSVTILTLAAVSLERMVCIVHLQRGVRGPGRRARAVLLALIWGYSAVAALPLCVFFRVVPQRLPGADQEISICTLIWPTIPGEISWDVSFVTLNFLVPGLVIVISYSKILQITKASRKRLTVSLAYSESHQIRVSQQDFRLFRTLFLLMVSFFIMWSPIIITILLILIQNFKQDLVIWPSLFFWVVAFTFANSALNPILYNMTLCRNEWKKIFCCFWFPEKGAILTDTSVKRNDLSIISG
Briefly: Human GPR120 calcium flux assay (FLIPR), Procedure Calcium A. The class given is cell-based. The following applies: HEK-293 cells expressing human GPR120 short form, 2500 cells/well; read-out: GPR120 Ca2+ Assay A EC50. The gist of the method:
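HEK293 cells stably expressing the short isoform (NM_001195755.1), 2500/well, starved 1 h, then loaded with Fluo-4 NW plus probenecid (30 min 37 °C, 15 min RT). Compound solutions 0.012–100 μM, 0.2% DMSO final; FLIPR read 300 s after addition. EC50 from Fmax−Fmin fitted to variable-slope sigmoid (Hill <2).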

T1 sequence (P32121 whole entry partner, one chain of several): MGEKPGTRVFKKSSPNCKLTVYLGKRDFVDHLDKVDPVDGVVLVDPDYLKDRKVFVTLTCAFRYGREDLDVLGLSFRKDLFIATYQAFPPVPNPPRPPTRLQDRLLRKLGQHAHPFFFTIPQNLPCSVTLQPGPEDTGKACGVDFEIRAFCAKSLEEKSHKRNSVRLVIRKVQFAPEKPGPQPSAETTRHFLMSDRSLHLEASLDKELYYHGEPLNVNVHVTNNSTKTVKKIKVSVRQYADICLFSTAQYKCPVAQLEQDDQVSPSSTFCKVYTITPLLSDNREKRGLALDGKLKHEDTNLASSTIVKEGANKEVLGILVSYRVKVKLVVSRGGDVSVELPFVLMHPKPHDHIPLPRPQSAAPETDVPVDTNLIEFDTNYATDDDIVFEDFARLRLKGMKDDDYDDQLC

In general, EC50 refers to the concentration that produces a half-maximal response. Consider “3-(4-((3-(2,4-difluorophenyl)-5-(trifluoromethyl)isothiazol-4-yl)methoxy)-3,5-difluorophenyl)propanoic acid [Cpd 174]”, for which the EC50 in experiment [1] is 1510 nM; at Human GPR120 short form, 382 nM.
As to “3-(4-((3-(4-ethylphenyl)-5-(trifluoromethyl)isothiazol-4-yl)methoxy)-2,3,5-trifluorophenyl)propan-1-ol [Cpd 238]”, the EC50 in experiment [1] is 310 nM; at Human GPR120 short form, 107 nM.
For “3-(4-[[3-(4-ethylphenyl)-5-methoxy-1,2-thiazol-4-yl]methoxy]-2,3-dimethylphenyl)propanoic acid [Cpd 228]”, the half-maximal effective concentration (EC50) was 118 nM in experiment [1] and 89 nM on Human GPR120 short form.
With “3-(4-[[5-(4-chlorophenyl)-3-(trifluoromethyl)-1,2-thiazol-4-yl]methoxy]-2-(trifluoromethoxy)phenyl) propanoic acid [Cpd 159]”, the EC50 turned out to be 819 nM in experiment [1] and 274 nM on Human GPR120 short form.
Take “3-(4-[[5-chloro-3-(4-chlorophenyl)thiophen-2-yl]methoxy]-2,3-dimethylphenyl) propanoic acid [Cpd 6]”: the EC50 in experiment [1] was determined as 1940 nM; at Human GPR120 short form it was 405 nM.
Take `Cc1ccc(-c2nsc(C(F)(F)F)c2COc2ccc(CCC(=O)O)c(C)c2C)c(F)c1` [Cpd 89, 3-(4-[[3-(2-fluoro-4-methylphenyl)-5-(trifluoromethyl)-1,2-thiazol-4-yl]methoxy]-2,3-dimethylphenyl)propanoic acid]: the EC50 stood at 416 nM in experiment [1] and 67 nM on Human GPR120 short form.
As to `CC(Cc1cc(F)c(OCc2c(-c3ccc(Cl)c(F)c3)nsc2C(F)(F)F)c(F)c1)C(=O)O` (centres unmarked) [Cpd 90, 3-(4-((3-(4-chloro-3-fluorophenyl)-5-(trifluoromethyl)isothiazol-4-yl)methoxy)-3,5-difluorophenyl)-2-methylpropanoic acid], the concentration giving a half-maximal response (EC50) in experiment [1] stood at 154 nM; at Human GPR120 short form it was 67 nM.
For the molecule `Cc1ccc(-c2nsc(C(F)(F)F)c2COc2c(F)cc(CCC(=O)O)cc2F)cc1F` [Cpd 91, 3-(3,5-difluoro-4-[[3-(3-fluoro-4-methylphenyl)-5-(trifluoromethyl)-1,2-thiazol-4-yl]methoxy]phenyl)propanoic acid], the EC50 was 31 nM in experiment [1] and 69 nM at Human GPR120 short form.
With `COc1cccc(-c2nsc(C(F)(F)F)c2COc2c(F)cc(CCC(=O)O)cc2F)c1` [Cpd 94, 3-(3,5-difluoro-4-[[3-(3-methoxyphenyl)-5-(trifluoromethyl)-1,2-thiazol-4-yl]methoxy]phenyl)propanoic acid], the EC50 in experiment [1] turned out to be 104 nM; at Human GPR120 short form, 71 nM.
In the case of `Cc1ccc(-c2snc(C(F)(F)F)c2COc2c(F)cc(CCC(=O)O)cc2F)c(F)c1` [Cpd 95, 3-(3,5-difluoro-4-[[5-(2-fluoro-4-methylphenyl)-3-(trifluoromethyl)-1,2-thiazol-4-yl]methoxy]phenyl)propanoic acid], the EC50 in experiment [1] turned out to be 116 nM; on Human GPR120 short form, 72 nM.
`Cc1ccc(-c2nsc(C(F)(F)F)c2COc2ccc(CCC(=O)O)c(C)c2C)cc1F` [Cpd 109, 3-(4-[[3-(3-fluoro-4-methylphenyl)-5-(trifluoromethyl)-1,2-thiazol-4-yl]methoxy]-2,3-dimethylphenyl)propanoic acid]: the EC50 in experiment [1] stood at 75 nM; on Human GPR120 short form, 89 nM.
As to `O=C(O)CCc1cc(F)c(OCc2c(C(F)(F)F)nsc2-c2ccc(Cl)c(F)c2)c(F)c1` [Cpd 110, 3-(4-[[5-(4-chloro-3-fluorophenyl)-3-(trifluoromethyl)-1,2-thiazol-4-yl]methoxy]-3,5-difluorophenyl) propanoic acid], the EC50 in experiment [1] was found to be 105 nM; on Human GPR120 short form, 94 nM.
Consider `O=C(O)CCc1cc(F)c(OCc2c(-c3ccc(C(F)(F)F)cc3)nsc2C(F)(F)F)c(F)c1` [Cpd 121, 3-(3,5-difluoro-4-[[5-(trifluoromethyl)-3-[4-(trifluoromethyl)phenyl]-1,2-thiazol-4-yl]methoxy]phenyl)propanoic acid], for which the figures for the 50% effective concentration (EC50) (in experiment [1]; on Human GPR120 short form) were 51 nM and 108 nM, respectively.
On to `COc1cccc(-c2nsc(C(F)(F)F)c2COc2ccc(CCC(=O)O)c(C)c2C)c1` [Cpd 126, 3-(4-[[3-(3-methoxyphenyl)-5-(trifluoromethyl)-1,2-thiazol-4-yl]methoxy]-2,3-dimethylphenyl) propanoic acid], for which the concentration giving a half-maximal response (EC50) in experiment [1] was 223 nM; on Human GPR120 short form it was 121 nM.
On to `CCc1ccc(-c2nsc(C(F)(F)F)c2COc2c(F)cc(CCC(=O)O)cc2F)c(F)c1` [Cpd 128, 3-(4-((3-(4-ethyl-2-fluorophenyl)-5-(trifluoromethyl)isothiazol-4-yl)methoxy)-3,5-difluorophenyl)propanoic acid], for which the results for the 50% effective concentration (EC50) (in experiment [1]; at Human GPR120 short form) were 59 nM and 124 nM, respectively.
As for `O=C(O)CCc1cc(F)c(OCc2c(-c3ccc(F)c(F)c3)nsc2C(F)(F)F)c(F)c1` [Cpd 129, 3-(4-((3-(3,4-difluorophenyl)-5-(trifluoromethyl)isothiazol-4-yl)methoxy)-3,5-difluorophenyl)propanoic acid], the half-maximal effective concentration (EC50) in experiment [1] amounted to 116 nM.
With `Cc1c(CCC(=O)O)ccc(OCc2c(C(F)(F)F)nsc2-c2ccc(Cl)c(F)c2)c1C` [Cpd 136, 3-(4-[[5-(4-chloro-3-fluorophenyl)-3-(trifluoromethyl)-1,2-thiazol-4-yl]methoxy]-2,3-dimethylphenyl)propanoic acid], the EC50 in experiment [1] was 526 nM; at Human GPR120 short form, 135 nM.
Consider `Cc1c(CCC(=O)O)ccc(OCc2c(C3CC(F)(F)C3)nsc2C(F)(F)F)c1C` [Cpd 137, 3-(4-[[3-(3,3-difluorocyclobutyl)-5-(trifluoromethyl)-1,2-thiazol-4-yl]methoxy]-2,3-dimethylphenyl) propanoic acid], for which the EC50 in experiment [1] was found to be 413 nM; at Human GPR120 short form it was 137 nM.
With `Cc1c(CCC(=O)O)ccc(OCc2c(-c3ccc(F)c(F)c3)nsc2C(F)(F)F)c1C` [Cpd 143, 3-(4-((3-(3,4-difluorophenyl)-5-(trifluoromethyl)isothiazol-4-yl)methoxy)-2,3-dimethylphenyl)propanoic acid], the EC50 in experiment [1] is 374 nM; at Human GPR120 short form, 156 nM.
As to `COc1ccc(-c2nsc(C(F)(F)F)c2COc2c(F)cc(CCC(=O)O)cc2F)cc1F` [Cpd 237, 3-(3,5-difluoro-4-[[3-(3-fluoro-4-methoxyphenyl)-5-(trifluoromethyl)-1,2-thiazol-4-yl]methoxy]phenyl)propanoic acid], the EC50 in experiment [1] worked out at 96 nM.
